Assay [1] relates to TRPV1+ nociceptors. Particulars: mouse, in vivo.
The subject of a further assay is skin MCs. Briefly: In vivo two-photon microscopy of Pirt-GCaMP3 mice: degranulation of Av.SRho+ MCs. Also noted: species or system mouse. The settings on record: for degranulation of Av.SRho+ MCs: mouse, in vivo.
Assay [2] relates to TRPV1+ nociceptors. The settings on record: mouse, in vivo. This is another data set of the same source.
A further assay concerns DRG neurons. It counts as cell-based, mouse.

With `COc1cc(CNC(=O)CCCC/C=C/C(C)C)ccc1O` [capsaicin], in the assay with TRPV1+ nociceptors [1], the “GCaMP3 fluorescence levels in skin neurons” value was “strong increase”. For the same molecule, the “time by which increase in GCaMP3 fluorescence preceded degranulation of cognate Av.SRho+ MCs” value in the assay with skin MCs (i.d. 1 μM, video recorded for 60 minutes) lay within 10 to 15 min. In addition, the “degranulation of Av.SRho+ MCs” value in the assay on skin MCs is recorded as “most of Av.SRho^+ MCs exhibited a degranulated phenotype”.

For `C=C(C)[C@]12C[C@@H](C)[C@@]34O[C@](Cc5ccccc5)(O[C@@H]1[C@@H]3C=C(COC(=O)Cc1ccc(O)c(OC)c1)C[C@]1(O)C(=O)C(C)=C[C@@H]41)O2` [RTX, resiniferatoxin], in the assay on TRPV1+ nociceptors [2], the “expression of the stress marker K-6” value is on record as “decreased”; the filaggrin organization result was “restored”; the “skin lesions development and tested pathological features” value is “strong reduction”.

For the molecule Staphylococcal enterotoxin B [SEB], the “intracellular calcium levels in DRG neurons” value with DRG neurons is reported as “weak”. In addition, in the assay with TRPV1+ nociceptors [1], the “GCaMP3 fluorescence levels in skin neurons” value is “significant increase”. In the assay on skin MCs, the “degranulation of Av.SRho+ MCs” value is on record as “presence of adjacent degranulated Av.SRho^+ MCs”.

Values taken from patent US20220227859A1, “METHOD TO TREAT TYPE 2 INFLAMMATION OR MAST-CELL DEPENDENT DISEASE” (INSERM (INSTITUT NATIONAL DE LA SANTÉ ET DE LA RECHERCHE …, priority 2019, published 2022).
